Reference: patent US11674967B2, “Method of identifying potential inhibitors of APO TNFα trimers” (UCB BIOPHARMA SRL, priority 2015, dated 2023)

Columns and labels:
IL-1β = assay: HEK-Blue NF-κB reporter gene counterscreen, IL-1β stimulus; type: cell-based; details: IL-1β 0.5 ng/mL
Method: Stimulation of HEK-293 cells by TNF-alpha leads to activation of the NF-kB pathway. The reporter cell line used to determine TNF alpha activity was purchased from Invivogen. HEK-Blue™ CD40L, is a stable transfectant expressing SEAP (secreted alkaline phosphatase) under the control of the IFN-beta minimal promoter fused to 5 NF-kB binding sites. Secretion of SEAP by these cells is stimulated in a concentration dependent manner by TNF-alpha (0.5 ng/ml), IL-1-beta (0.5 ng/ml) and an activating anti-human TNFR1 antibody (300 ng/ml).
Compounds were diluted from 10 mM DMSO stocks (final assay concentration 0.3%) to generate a 10 point 3 fold serial dilution curve (30,000 nM to 2 nM final concentration). They were mixed with stimulating ligand for 1 hour in a 384 well microtitre plate. Freshly thawed and washed cells were added to the compound/stimulus mixture and further incubated for 18 hours. SEAP activity was determined in the supernatant using the colorimetric substrate Quanti-Blue™ (Invivogen).
Percentage inhibitions for compound dilutions were calculated between a DMSO control and maximum inhibition (by excess control compound) and an IC50 calculated using xlfit (4 parameter logistic model) in Activity Base.
The specific activity of the compound of formula (15) against the TNF-alpha response was compared to that seen with the counterscreens (IL-1beta and anti-human TNFR1 antibody).

TNFα [1] = target: T1, TNFα (Homo sapiens, UniProt P01375); assay: Mass spectrometric analysis of compound binding to TNFα (soft ionisation)
Method: Mass spectrometry was typically performed using a Waters LCT-premier Time-of-Flight mass spectrometer or a Waters SynaptG2 Q-TOF mass spectrometer. Samples were introduced using an Advion Triversa Nanomate nanoflow infusion device which replaces the conventional spectrometer source, sample injection was via an “A” series chip with […] nozzle size at a nominal flow rate of 100 nl/min. Further modifications to the Waters LCT-premier Time-of-Flight mass spectrometer include a customised source cooling device allowing precise control of the source temperature and a commercial pressure regulation device giving precise control over the vacuum conditions in the source region. Together these modifications help retain the TNFα trimer in a native, folded conformation and facilitate the detection of complexes formed with test compounds of weak affinities.
Ions were generated using standard positive ion electrospray conditions resulting in multiple charging of TNFα.
Mass spectrometry is very sensitive to the buffer salts present in the protein sample. Typical buffer salts such as potassium or sodium phosphates have a severely detrimental affect on ionisation. Accordingly protein samples were pre-treated to remove these salts using a Zeba desalt spin column, the protein being exchanged into a mass spectrometry compatible buffer system, typically 50 mM Ammonium Acetate at pH 6.8.
Typically the test compounds were presented as 10 mM DMSO stock solutions such that when they are incubated with TNFα in solution the final DMSO concentration is 5%. […] This is evidenced by the changes in the number of charges acquired by the protein under the various conditions described.
Test compounds were prepared as 10 mM solutions in dimethylsulphoxide (DMSO). Therefore, it was necessary to establish the effect of DMSO on the native TNFα trimer in the absence of a test compound. […]
Incubation of a library of test compounds, including the compound of formula (3) with TNFα was monitored by mass spectrometry under soft ionization conditions. […]
Target sequence in this assay (P01375 77-233 limits assumed): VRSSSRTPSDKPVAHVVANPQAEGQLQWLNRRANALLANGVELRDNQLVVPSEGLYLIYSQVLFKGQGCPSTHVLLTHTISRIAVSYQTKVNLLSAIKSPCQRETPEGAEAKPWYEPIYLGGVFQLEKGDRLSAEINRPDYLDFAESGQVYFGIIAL

[2] = system: hTNFα-induced neutrophil recruitment; assay: Neutrophil recruitment in mice, compound given orally before hTNFα i.p.; type: in vivo, Balb/c mice
Method: In a further experiment, mice were treated with hTNFα (0.3 μg/ml) and the compound of formula (3) was administered orally (p.o.).
The compound of formula (3) was made into a suspension in 1% methylcellulose vehicle using a covaris machine.
An anti-human TNFα monoclonal antibody (anti-hTNFα, UCB) was also utilised as a positive control in this study.
Ten male Balb/c mice were used per group except in the group that received anti-hTNFα for which 4 mice were used.
Mice received 100 μL of either vehicle (1% methylcellulose) or compound of formula (3) at 30 mg/kg or 100 mg/kg p.o. 30 minutes (t=−30) or anti-hTNFα at 10 mg/kg i.p. 5 minutes (t=−5) prior to being injected with human TNFα.
All mice were killed by cervical dislocation two hours post-injection of hTNFα (t=2 h) and the peritoneal cavity was lavaged and neutrophil numbers measured as described above.

TNFα [3] = target: T1, TNFα; assay: LC-MS of size exclusion fractions of TNFα, TNF-R and compound; type: binding; set-up: purchased R&D Systems; details: either order of addition
Method: Fractions from size exclusion chromatographic separation of mixtures of TNFα, TNF-R and the compound of formula (3) were analysed by liquid chromatography-mass spectrometry (LC-MS). Two samples were prepared for size exclusion chromatography.
Target sequence in this assay (P01375 77-233 limits assumed): as above
Target sequence in this assay (P19438 30-211 partner limits assumed): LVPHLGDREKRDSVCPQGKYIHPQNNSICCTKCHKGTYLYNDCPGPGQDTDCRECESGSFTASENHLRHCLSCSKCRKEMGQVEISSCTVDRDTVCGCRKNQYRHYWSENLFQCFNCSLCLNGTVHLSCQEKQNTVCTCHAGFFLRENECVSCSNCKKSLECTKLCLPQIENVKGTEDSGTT

| Compound | inhibition of activation of NF-κB by IL-1β (IL-1β) | effect on trimeric TNFα (charge state envelope) (TNFα [1]; 5% v/v DMSO) | binding to the monomeric form of TNFα (TNFα [1]; soft ionization) | stoichiometry of binding (TNFα [1]; soft ionization) | reduction of TNFα stimulated neutrophil recruitment into the peritoneal cavity ([2]; 30 mg/kg p.o.) [%] | reduction of TNFα stimulated neutrophil recruitment into the peritoneal cavity ([2]; 100 mg/kg p.o.) [%] | binding to TNFα in the presence of TNF-R (TNFα [3]) |
| --- | --- | --- | --- | --- | --- | --- | --- |
| Cc1ccc(C)c(Cn2c(C(O)c3ccncc3)nc3ccc(-c4cnn(C)c4)cc32)c1 (stereo not shown) [Compound 15] | did not inhibit | – | – | – | – | – | – |
| Cc1ccc(C)c(Cn2c(C(O)c3ccncc3)nc3ccccc32)c1 (stereo not shown) [Compound 3] | – | stabilization of the trimeric TNFα complex | not observed to bind | one molecule of the compound of formula (3) per TNFα trimer | 49 | 79 | binds to TNFα even in the presence of TNF-R |
